Results: patent US20200024278A1, “COMPOSITION COMPRISING ANTIBIOTIC COMPOUND AND AN HETEROCYCLIC COMPOUND AND THEIR USE IN PREVENTING OR TREATING BACTERIAL INFECTIONS” (MUTABILIS, priority 2016, published 2020)

What was measured:
Assay in all cases: MIC, broth microdilution (CLSI), substance alone or ATB combined with compound at 4 or 8 μg/mL
ECO 190317 = type: cell-based, E. coli; settings: ECO 190317
Experimental: (§1) Compounds of the present invention were assessed against genotyped bacterial strains alone or in combination with an antibacterial. In the assays, MICs of said compounds or combination of antibiotics with fixed concentrations of said compounds (4 or 8 μg/mL) were determined by the broth microdilution method according to the Clinical Laboratory Standards Institute (CLSI-M7-A7). Briefly, compounds alone according to the invention were prepared in DMSO and spotted (2 μL each) on sterile polystyrene plates (Corning, 3788). Combinations of compounds and antibiotics dilutions were prepared in DMSO and spotted (1 μL each) on sterile polystyrene plates (Corning, 3788). Log phase bacterial suspensions were adjusted to a final density of 5·10^5 CFU/mL in cation-adjusted Mueller-Hinton broth (ca-MHB; Becton-Dickinson and Company) and added to each well (98 μL). Assays including Fosfomycin were supplemented with 25 μg/ml of Glucose-6-phosphate. Microplates were incubated for 16-20 h at 35° C. in ambient air. The MIC of the compounds was defined as the lowest concentration of said compounds that prevented bacterial growth as read by visual inspection. The MIC of ATB at each compound concentration was defined as the lowest concentration of ATB that prevented bacterial growth as read by visual inspection.

ECO UFR39 = type: cell-based, E. coli; settings: ECO UFR39; with Example 13 at 8 μg/ml
Experimental: as §1

ECL P99 = type: cell-based, E. cloacae; settings: ECL P99
Experimental: as §1

PAE 105250 = type: cell-based, P. aeruginosa; settings: PAE 105250
Experimental: as §1

PAE UFR48 = type: cell-based, P. aeruginosa; settings: PAE UFR48
Experimental: as §1

PAE UFR90 = type: cell-based, P. aeruginosa; settings: PAE UFR90
Experimental: as §1

SAU 29213 = type: cell-based, S. aureus; settings: SAU 29213
Experimental: as §1

SPN 49619 = type: cell-based, S. pneumoniae; settings: SPN 49619
Experimental: as §1

## CO/N=C(\C(=O)N[C@@H]1C(=O)N2C(C(=O)O)=C(COC(C)=O)CS[C@H]12)c1csc(N)n1 [CTX]
ECO 190317; with Example 1 @8 μg/ml
  MIC ATB combined with Example 1 @8 μg/ml: <0.031 µg/mL
ECO 190317; with Example 1 at 8 μg/ml
  MIC ATB combined with Example 1 @8 μg/ml: <0.031 µg/mL
ECO 190317; with Example 13 at 8 μg/ml
  MIC ATB combined with Example 13 @8 μg/ml: <0.031 µg/mL
ECO UFR39
  MIC ATB combined with Example 13 @8 μg/ml: <0.031 µg/mL
ECL P99; with Example 1 @8 μg/ml
  MIC ATB combined with Example 1 @8 μg/ml: <0.031 µg/mL
ECL P99; with Example 1 at 8 μg/ml
  MIC ATB combined with Example 1 @8 μg/ml: <0.031 µg/mL
ECL P99; with Example 7 at 8 μg/ml
  MIC ATB combined with Example 7 @8 μgml: 0.063 µg/mL
ECL P99; with Example 13 at 8 μg/ml
  MIC ATB combined with Example 13 @8 μg/ml: 1 µg/mL
ECL P99; with Example 15 at 4 μg/ml
  MIC ATB combined with Example 15 @4 μgml: <=0.031 μg/mL
PAE 105250; with Example 1 @8 μg/ml
  MIC ATB combined with Example 1 @8 μg/ml: <0.031 µg/mL
PAE 105250; with Example 1 at 8 μg/ml
  MIC ATB combined with Example 1 @8 μg/ml: <0.031 µg/mL
PAE 105250; with Example 7 at 8 μg/ml
  MIC ATB combined with Example 7 @8 μgml: 32 µg/mL
PAE 105250; with Example 11 at 8 μg/ml
  MIC ATB combined with Example 11 @8 μg/ml: 32 µg/mL
PAE 105250; with Example 12 at 8 μg/ml
  MIC ATB combined with Example 12 @8 μg/ml: >32 µg/mL
PAE 105250; with Example 14 at 8 μg/ml
  MIC ATB combined with Example 14 @8 μg/ml: >32 µg/mL
PAE 105250; with Example 15 at 4 μg/ml
  MIC ATB combined with Example 15 @4 μgml: 32 µg/mL
PAE 105250; with Example 16 at 4 μg/ml
  MIC ATB combined with Example 16 @4 μg/ml: >32 µg/mL
PAE UFR48; with Example 1 @8 μg/ml
  MIC ATB combined with Example 1 @8 μg/ml: <0.031 µg/mL
PAE UFR48; with Example 1 at 8 μg/ml
  MIC ATB combined with Example 1 @8 μg/ml: <0.031 µg/mL
PAE UFR48; with Example 7 at 8 μg/ml
  MIC ATB combined with Example 7 @8 μgml: >32 µg/mL
PAE UFR48; with Example 11 at 8 μg/ml
  MIC ATB combined with Example 11 @8 μg/ml: >32 µg/mL
PAE UFR48; with Example 12 at 8 μg/ml
  MIC ATB combined with Example 12 @8 μg/ml: >32 µg/mL
PAE UFR48; with Example 14 at 8 μg/ml
  MIC ATB combined with Example 14 @8 μg/ml: >32 µg/mL
PAE UFR48; with Example 15 at 4 μg/ml
  MIC ATB combined with Example 15 @4 μgml: >32 µg/mL
PAE UFR48; with Example 16 at 4 μg/ml
  MIC ATB combined with Example 16 @4 μg/ml: >32 µg/mL
PAE UFR90; with Example 1 @8 μg/ml
  MIC ATB combined with Example 1 @8 μg/ml: <0.031 µg/mL
PAE UFR90; with Example 1 at 8 μg/ml
  MIC ATB combined with Example 1 @8 μg/ml: <0.031 µg/mL
PAE UFR90; with Example 7 at 8 μg/ml
  MIC ATB combined with Example 7 @8 μgml: >32 µg/mL
PAE UFR90; with Example 11 at 8 μg/ml
  MIC ATB combined with Example 11 @8 μg/ml: >32 µg/mL
PAE UFR90; with Example 14 at 8 μg/ml
  MIC ATB combined with Example 14 @8 μg/ml: >32 µg/mL
PAE UFR90; with Example 15 at 4 μg/ml
  MIC ATB combined with Example 15 @4 μgml: >32 µg/mL
PAE UFR90; with Example 16 at 4 μg/ml
  MIC ATB combined with Example 16 @4 μg/ml: >32 µg/mL
SAU 29213; antibiotic alone
  MIC ATB alone: 2 µg/mL
SAU 29213; with Example 1 @8 μg/ml
  MIC ATB combined with Example 1 @8 μg/ml: 2 µg/mL
SAU 29213; with Example 1 at 8 μg/ml
  MIC ATB combined with Example 1 @8 μg/ml: 2 µg/mL
SAU 29213; with Example 7 at 8 μg/ml
  MIC ATB combined with Example 7 @8 μgml: 1 µg/mL
SAU 29213; with Example 11 at 8 μg/ml
  MIC ATB combined with Example 11 @8 μg/ml: <=0.031 μg/mL
SAU 29213; with Example 13 at 8 μg/ml
  MIC ATB combined with Example 13 @8 μg/ml: 1 µg/mL
SAU 29213; with Example 15 at 4 μg/ml
  MIC ATB combined with Example 15 @4 μgml: 0.5 µg/mL
SPN 49619; antibiotic alone
  MIC ATB alone: 0.063 µg/mL
SPN 49619; with Example 1 @8 μg/ml
  MIC ATB combined with Example 1 @8 μg/ml: <=0.031 μg/mL
SPN 49619; with Example 1 at 8 μg/ml
  MIC ATB combined with Example 1 @8 μg/ml: <=0.031 μg/mL
SPN 49619; with Example 7 at 8 μg/ml
  MIC ATB combined with Example 7 @8 μgml: <=0.031 μg/mL
SPN 49619; with Example 9 @4 μg/ml
  MIC ATB combined with Example 9 @4 μg/ml: <=0.031 μg/mL
SPN 49619; with Example 9 at 4 μg/ml
  MIC ATB combined with Example 9 @4 μg/ml: <=0.031 μg/mL
SPN 49619; with Example 11 at 8 μg/ml
  MIC ATB combined with Example 11 @8 μg/ml: <=0.031 μg/mL
SPN 49619; with Example 12 at 8 μg/ml
  MIC ATB combined with Example 12 @8 μg/ml: <=0.031 μg/mL
SPN 49619; with Example 13 at 8 μg/ml
  MIC ATB combined with Example 13 @8 μg/ml: <=0.031 μg/mL
SPN 49619; with Example 14 at 8 μg/ml
  MIC ATB combined with Example 14 @8 μg/ml: <=0.031 μg/mL
SPN 49619; with Example 15 at 4 μg/ml
  MIC ATB combined with Example 15 @4 μgml: <=0.031 μg/mL
SPN 49619; with Example 16 at 4 μg/ml
  MIC ATB combined with Example 16 @4 μg/ml: <=0.031 μg/mL
